Laboratory results from ChEMBL document CHEMBL1151609, “The discovery of novel openers of Ca2+-dependent large-conductance potassium channels: Pharmacophore search and physiological evaluation of flavonoids” (Bioorg Med Chem Lett, 1997).

Target: Calcium-activated potassium channel subunit alpha-1 (Homo sapiens) (UniProt Q12791)
Experiment: The compound was tested for maxi-K channel opening property at concentration of 20 uM, activity expressed as percentage of current

Chain of Calcium-activated potassium channel subunit alpha-1 (Homo sapiens) (Q12791 whole entry): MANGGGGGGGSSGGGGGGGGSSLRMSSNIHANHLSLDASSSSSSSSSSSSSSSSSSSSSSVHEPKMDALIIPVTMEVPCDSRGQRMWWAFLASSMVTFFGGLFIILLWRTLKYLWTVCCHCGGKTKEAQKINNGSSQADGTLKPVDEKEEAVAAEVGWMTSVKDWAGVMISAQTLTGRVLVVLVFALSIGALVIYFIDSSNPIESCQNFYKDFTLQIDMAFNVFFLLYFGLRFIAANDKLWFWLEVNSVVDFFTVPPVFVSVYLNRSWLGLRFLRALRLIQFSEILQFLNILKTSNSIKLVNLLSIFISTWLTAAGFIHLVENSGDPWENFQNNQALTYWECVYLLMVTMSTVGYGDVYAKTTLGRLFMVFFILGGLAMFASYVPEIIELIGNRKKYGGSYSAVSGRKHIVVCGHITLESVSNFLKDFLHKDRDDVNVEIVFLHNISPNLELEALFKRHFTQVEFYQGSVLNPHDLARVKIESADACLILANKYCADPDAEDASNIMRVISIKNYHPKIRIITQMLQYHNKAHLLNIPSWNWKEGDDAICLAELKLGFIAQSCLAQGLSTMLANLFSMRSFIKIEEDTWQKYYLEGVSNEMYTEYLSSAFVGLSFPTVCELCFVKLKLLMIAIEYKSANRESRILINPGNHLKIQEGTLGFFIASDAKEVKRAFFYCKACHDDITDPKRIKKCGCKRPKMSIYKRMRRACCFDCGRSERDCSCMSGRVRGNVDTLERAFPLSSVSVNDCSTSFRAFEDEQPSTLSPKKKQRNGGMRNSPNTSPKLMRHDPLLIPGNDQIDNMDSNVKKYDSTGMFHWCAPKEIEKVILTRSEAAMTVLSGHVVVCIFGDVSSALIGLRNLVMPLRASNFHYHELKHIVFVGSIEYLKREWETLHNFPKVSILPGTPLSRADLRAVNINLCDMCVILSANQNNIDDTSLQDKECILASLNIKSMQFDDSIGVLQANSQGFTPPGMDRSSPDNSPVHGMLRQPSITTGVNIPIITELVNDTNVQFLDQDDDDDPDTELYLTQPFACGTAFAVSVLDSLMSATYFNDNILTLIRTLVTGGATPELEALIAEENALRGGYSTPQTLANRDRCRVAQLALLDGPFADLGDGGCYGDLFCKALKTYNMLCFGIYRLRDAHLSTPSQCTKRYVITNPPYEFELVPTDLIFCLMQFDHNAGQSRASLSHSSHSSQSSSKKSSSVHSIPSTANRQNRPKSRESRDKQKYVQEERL

Row | Maxi-K current, % of control [%] | Compound
1 | 103 | O=c1cc(-c2ccccc2)oc2ccccc12
2 | 82.4 | O=C(/C=C/c1ccccc1)c1ccccc1
3 | 167 | O=c1c(O)c(-c2ccc(O)cc2)oc2cc(O)cc(O)c12
4 | 132 | O=c1[nH]c2cc(C(F)(F)F)ccc2n1-c1cc(Cl)ccc1O
5 | 94.6 | COc1cc(OC)c2c(=O)c(OC)c(-c3ccc(OC)c(OC)c3)oc2c1
6 | 120 | O=C(CCc1ccc(O)cc1)c1c(O)cc(O)cc1O
7 | 159 | O=c1cc(-c2ccc(O)cc2)oc2cc(O)cc(O)c12
8 | 81.5 | CC(=O)Nc1ccc(O)c(C(=O)/C=C/c2ccccc2)c1
9 | 74.4 | O=C(/C=C/c1cccc([N+](=O)[O-])c1)c1ccccc1O
